Experiments:
[1] = 26 week placebo-controlled clinical trial: pulse rate (vital signs); assay type: in vivo, human
Method: (§1) The safety and efficacy of combination treatment with 300 mg canagliflozin and 15 mg phentermine was investigated in a 26 week, randomized, double-blind, placebo-controlled, parallel group, multi-center study. (Complete study protocol filed and available as STUDY 28431754-OBE2002 on www.clinicaltrials.gov).
(§2) The study began with a 4-week single blind placebo run-in period. […] All subjects were provided with diet and exercise counseling for weight loss (standardized non-pharmacological therapy) and were instructed to follow the diet and exercise program throughout the study.
(§3) The modified intent-to-treat (mITT) analysis set included all randomized subjects who had received at least one dose of study drug. The primary efficacy endpoint was percent change from baseline in body weight at Week 26. The secondary efficacy endpoints included (1) proportion of subjects with weight loss ≥5% at Week 26, (2) absolute change from baseline in SBP ([…]) at Week 26, and (3) absolute change from baseline in body weight at Week 26. The inclusion of canagliflozin 300 mg and phentermine 15 mg as separate treatment groups allowed for a descriptive estimate of relative contribution of the individual components to the observed weight loss in the co-therapy canagliflozin 300 mg/phentermine 15 mg group and provided efficacy and safety data on canagliflozin 300 mg in the non-diabetic, overweight/obese population. Safety analyses included treatment-emergent adverse events (referred to as adverse events in this document), laboratory tests (including chemistry and hematology), and vital signs (blood pressure and pulse rate).

[2] = 26 week randomized, double-blind, placebo-controlled clinical trial: body weight; assay type: in vivo, human; conditions: for Absolute Body Weight Change from Baseline at Week 26, LS Mean / Body weight % Change from Baseline at Week 26, LS Mean: MMRM; for Body weight % Change from Baseline at Week 26, LS Mean: overweight or obese non-diabetic adults; for Absolute Body Weight Change from Baseline at Week 26, Diff. of LS Means Minus Placebo / Body weight % Change from Baseline at Week 26, Diff. of LS Means Minus Placebo: placebo-subtracted; for estimated contribution to the weight loss observed at Week 26: share of the weight loss in the co-therapy group
Method: as §1, §2, §3
The change from baseline in absolute body weight at Week 26 was analyzed with an MMRM similar to the primary efficacy endpoint.

[3] = 26 week placebo-controlled clinical trial: systolic and diastolic blood pressure; assay type: in vivo, human; conditions: Week 26; for Systolic Blood Pressure Change From Baseline, LS Mean: MMRM; for Diastolic Blood Pressure, Mean change / Diastolic Blood Pressure, Median change / Systolic Blood Pressure, Mean change / Systolic Blood Pressure, Median change: change from baseline, observed; for Systolic Blood Pressure Change From Baseline, Diff. of LS Means Minus Placebo: placebo-subtracted
Method: as §1, §2, §3
The reduction in diastolic blood pressure of −1.6 mm Hg (baseline 80 mm Hg) was not statistically significant.

C. elegans = conditions: BOHB treatment of the worm (C. elegans); Edwards et al. 2014; cited from earlier work
[4] = metformin on its own, in the diabetic; cited from earlier work
[5] = Week 26, change from baseline, observed

Structure (SMILES) | pulse, LS Mean change from baseline (SE) ([1]; Week 26) | Pulse Rate, Mean change [1, 5] [BEATS/MIN] | Pulse Rate, Median change [1, 5] [BEATS/MIN] | Absolute Body Weight Change from Baseline at Week 26, LS Mean [2] [kg] | Body weight % Change from Baseline at Week 26, LS Mean [2] [%] | Absolute Body Weight Change from Baseline at Week 26, Diff. of LS Means Minus Placebo [2] [kg] | Body weight % Change from Baseline at Week 26, Diff. of LS Means Minus Placebo [2] [%] | estimated contribution to the weight loss observed at Week 26 [2] [%] | Systolic Blood Pressure Change From Baseline, LS Mean [3] [mmHg] | Diastolic Blood Pressure, Mean change [3] [mmHg] | Diastolic Blood Pressure, Median change [3] [mmHg] | Systolic Blood Pressure, Mean change [3] [mmHg] | Systolic Blood Pressure, Median change [3] [mmHg] | Systolic Blood Pressure Change From Baseline, Diff. of LS Means Minus Placebo [3] [mmHg] | increase in lifespan (C. elegans) [%] | average improvement in the HbA1c value [4] | Pulse Rate, Mean change ([1]; human, in vivo) [BEATS/MIN] | Pulse Rate, Median change ([1]; human, in vivo) [BEATS/MIN] | pulse, LS Mean change from baseline (SE) ([1]; human, in vivo)
CC(C)(N)Cc1ccccc1 [Phen 15 mg, 2-methyl-1-phenylpropan-2-amine] | 4.1 (1.0) bpm | 5.02 | 4.67 | -4.1 | −4.1 | -3.5 | −3.5 | 50 | −1.4 | 0.55 | 0.67 | −1.13 | −0.33 | 1.3 |  |  |  |  | 
CC(O)CC(=O)O (stereo not drawn) [BOHB, beta-hydroxybutyrate] |  |  |  |  |  |  |  |  |  |  |  |  |  |  | ~20 |  |  |  | 
CN(C)C(=N)N=C(N)N [metformin] |  |  |  |  |  |  |  |  |  |  |  |  |  |  |  | 1.0-1.5% |  |  | 
Cc1ccc([C@@H]2O[C@H](CO)[C@@H](O)[C@H](O)[C@H]2O)cc1Cc1ccc(-c2ccc(F)cc2)s1 [Cana 300 mg, (1S)-1,5-anhydro-1-[3-[[5-(4-fluorophenyl)-2-thienyl]methyl]-4-methylphenyl]-D-glucitol] |  |  |  | -1.9 | −1.9 | -1.3 | −1.3 | 18 | −3.1 | −1.32 | −1.17 | −3.31 | −1.67 | −0.4 |  |  | 1.64 | 0.83 | 0.7 (1.0) bpm
